Assay results as given in US8039513B2, “Cis-1,2-substituted stilbene derivatives and their use in preparation of drugs for treatment and/or prevention of diabetes” (Institute of Radiation Medicine, Academy of Military …, priority 2004, dated 2011).

Key:
[1] = test system: mice with glucose-induced hyperglycemia; test: Hypoglycemic effect of orally administered compounds in mice with glucose-induced hyperglycemia; format: in vivo, Kun Ming male mice; details: glucose 2 g/10 ml/kg orally 15 min later, fasted mice
Experimental: In the following biological experiments, the hypoglycemic activity of the above compounds was chiefly observed in hyperglycemic mice. Taking 3,3′,5′-trihydroxy-4′-methoxystilbene-3-O-β-D-glucoside (rhaponticin) as a positive control drug, the hypoglycemic activity of these compounds were preliminarily evaluated.
Kun Ming male mice (certification: Medical Animal No. D01-3023) with body weight of 21-33 g were used in the experiments. After fasting and feeding water for 16 hours, the compounds were administered to the mice. The candidate compounds were formulated with dimethyl sulfoxide (2.5 ml/kg), and administered to the mice intragastrically. After fifteen minutes, glucose (2 g/10 ml/kg) was administered orally. One hour later, one drop of blood was collected by cutting a segment of tail and the blood sugar level was monitored with a blood sugar monitor manufactured by Johnson Company, USA, by using a test paper containing glucose oxidase. For the mice of the control group, dimethyl sulfoxide ([…]) and glucose (2 g/10 ml/kg) were given intragastrically.

[2] = Table 1, 400 mg/kg intragastrically, DMSO control 9.50 ± 1.06
[3] = Table 2, 400 mg/kg intragastrically, DMSO control 8.53 ± 0.76
[4] = Table 3, 400 mg/kg intragastrically, DMSO control 7.80 ± 1.33

Structure (SMILES) | Blood sugar level one hour after administration M ± SD [1, 2] [mmol/L] | Blood sugar level one hour after administration M ± SD [1, 3] [mmol/L] | other results
COc1cc(/C=C\c2ccccc2)ccc1O [Example 1, cis-1-phenzyl-2-(3′-methoxy-4′-hydroxy-phenyl)ethene] | 7.62 ± 1.59 |  | 
COc1ccc(/C=C(/C(=O)O)c2ccccc2)cc1OC(C)=O [Example 2, cis-2-phenyl-3-(3′-acetoxy-4′-methoxy-phenyl)acrylic acid] | 8.20 ± 0.99 |  | 
COc1cc(/C=C(/C(=O)O)c2ccccc2)ccc1OC(C)=O [Example 3, cis-2-phenyl-3-(3′-methoxy-4′-acetoxy-phenyl)acrylic acid] | 7.30 ± 0.68 | 7.85 ± 0.16 | 
COc1cc(/C=C(/C(=O)O)c2ccccc2)ccc1O [Example 4, cis-2-phenyl-3-(3′-methoxy-4′-hydroxy-phenyl)acrylic acid] |  | 7.30 ± 2.21 | 
COc1ccc(/C=C(/C(=O)O)c2ccccc2)cc1C(=O)O [Example 5, cis-2-phenyl-3-(3′-carboxy-4′-methoxy-phenyl)acrylic acid] |  | 8.50 ± 1.01 | 
COc1cc(/C=C(/C(=O)NC2CCCCC2)c2ccccc2)ccc1OC(C)=O [Example 6, cis-2-phenyl-3-(3-methoxy-4′-acetoxy-phenyl)-N-cyclohexyl acrylamide] |  | 5.46 ± 0.86 | 
COc1cc(C=C(C(=O)NCc2ccco2)c2ccccc2)ccc1OC(C)=O [Example 7, cis-2-phenyl-3-(3′-methoxy-4′-acetoxy-phenyl)-N-(methylenefuran)acrylamide] |  |  | Blood sugar level one hour after administration M ± SD [1, 4]: 6.95 ± 0.61 mmol/L
COc1cc(C=C(C(=O)N[C@H]2CC[C@@H](C)CC2)c2ccccc2)ccc1OC(C)=O [Example 8, cis-2-phenyl-3-(3′-methoxy-4′-acetoxy-phenyl)-N-(4-methylcyclohexyl)acrylamide] |  |  | melting point: 136 to 140 °C; Blood sugar level one hour after administration M ± SD ([1]; Table 3, 100 mg/kg intragastrically, DMSO control 7.80 ± 1.33): 5.61 ± 1.67 mmol/L
COC(=O)/C(=C/c1ccc(OC)c(OC)c1)c1ccccc1 [Example 9, cis-2-phenyl-3-(3′,4′-dimethoxy-phenyl)-methyl acrylate] |  |  | Blood sugar level one hour after administration M ± SD [1, 4]: 8.41 ± 0.88 mmol/L
COc1ccc(/C=C/c2cc(O)cc(O[C@@H]3O[C@H](CO)[C@@H](O)[C@H](O)[C@H]3O)c2)cc1O [rhaponticin, 3,3′,5′-trihydroxy-4′-methoxystilbene-3-O-β-D-glucoside, reference compound] | 9.14 ± 1.90 |  | Blood sugar level one hour after administration M ± SD ([1]; Table 1, 800 mg/kg intragastrically, DMSO control 9.50 ± 1.06): 7.02 ± 1.01 mmol/L
